The test system of the experiment is rat carrageenin-induced pleuritis. The experiment is described as follows: Inhibitory effect on rat carrageenin-induced pleuritis (dye leakage into pleural cavity). In kind it is in vivo, Wistar rats. To be noted: NFLX-DX 13.4 mg/kg orally 30 min before induction, n = 7. Here is the method: Inhibitory Effect of the Compound on Rat Carrageenin-induced Pleuritis The inhibitory effect of norfloxacin-dexamethasone ester hydrochloride on rat carrageenin-induced pleuritis was evaluated. [Test substance] Norfloxacin-dexamethasone ester hydrochloride (abbreviatedname: NFLX-DX) Wistar rats weighing about 200 g were used. Two groups receiving (1) distilled water (5 ml/kg) and (2) NFLX-DX (13.4 mg/kg), respectively, were provided. Under pentobarbital anesthesia, 0.1 ml of 2% λ-carrageenin was injected into the rat pleura to induce pleuritis. Five hours after the construction of pleuritis, a 5% aqueous solution of Pontamine Sky Blue (2 mg/kg) was injected intravenously, and 20 minutes later the rat was sacrificed and the pleural exudate was collected using a tube. The amount of dye leakage in the pleural cavity (μg/site) was estimated from the amount and absorbance (625 nm) of the exudate sample (ml) by the calibration curve method. The test substance was administered orally (5 ml/kg) 30 minutes before induction of inflammation.

Counter-ions that a name gives are not always drawn.

As a reminder, the % Inhibition is the drop in the measured response relative to a control, in per cent.

Consider `CCn1cc(C(=O)OCC(=O)[C@@]2(O)[C@H](C)C[C@H]3[C@@H]4CCC5=CC(=O)C=C[C@]5(C)[C@@]4(F)[C@@H](O)C[C@@]32C)c(=O)c2cc(F)c(N3CCNCC3)cc21` [NFLX-DX, 9-Fluoro-11β,17,21-trihydroxy-16α-methyl-1,4-pregnadiene-3, 20-dione-21-[1-ethyl-6-fluoro-1,4-dihydro-7-(1-piperazinyl)-4-oxo-3-quinolinecarboxylate]hydrochloride], for which the Dye leakage (mean ± standard error, * p < 0.01 vs control (distilled water, 74.81 ± 10.70)) is 20.02 ± 3.80 μg/site. Besides, the “% Inhibition” value (inhibition of dye leakage vs control (distilled water)) was found to be 73.0%.

The values are drawn from patent US5599807A, “Steroid derivatives” (Senju Pharmaceutical Co., Ltd., priority 1993, dated 1997).
